Data taken from publication PMC4979471 (Cell Death Discovery, 2015).
Read-outs that look alike come from different tables or passages of the source.

Tests used:
Assay in all cases: Kinase selectivity, P33-radiolabeled assay
Format in all cases: biochemical
Settings in all cases: 10 μM ATP
AKT3 = target: T1, AKT3 (Homo sapiens, UniProt Q9Y243)
T1 construct: purchased Reaction Biology Corp
Method in brief: (§1)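 ATP at 10 μM; test article at 10 μM, single point, two replicates. Output is activity as % of DMSO.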

DMPK = target: T2, DMPK (Homo sapiens, UniProt Q09013)
T2 construct: purchased Reaction Biology Corp
T2 sequence (Q09013 1-629): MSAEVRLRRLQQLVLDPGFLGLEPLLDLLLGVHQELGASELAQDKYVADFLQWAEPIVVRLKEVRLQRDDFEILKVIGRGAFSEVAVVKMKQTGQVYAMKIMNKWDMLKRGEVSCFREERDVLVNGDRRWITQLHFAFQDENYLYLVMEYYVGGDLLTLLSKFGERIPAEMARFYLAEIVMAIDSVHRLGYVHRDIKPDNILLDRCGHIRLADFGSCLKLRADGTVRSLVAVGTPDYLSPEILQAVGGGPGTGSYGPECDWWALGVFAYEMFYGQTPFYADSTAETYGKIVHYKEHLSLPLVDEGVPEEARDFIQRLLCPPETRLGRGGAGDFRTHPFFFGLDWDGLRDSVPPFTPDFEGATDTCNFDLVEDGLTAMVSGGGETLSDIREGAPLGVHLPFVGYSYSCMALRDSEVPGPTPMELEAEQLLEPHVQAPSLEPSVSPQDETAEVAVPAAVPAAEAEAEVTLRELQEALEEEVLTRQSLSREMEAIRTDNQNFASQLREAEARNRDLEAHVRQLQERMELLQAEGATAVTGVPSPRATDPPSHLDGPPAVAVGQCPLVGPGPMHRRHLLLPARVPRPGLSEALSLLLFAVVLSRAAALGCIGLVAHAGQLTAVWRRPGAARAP
Method in brief: as §1

ERBB2/HER2 = target: T3, ERBB2/HER2 (Homo sapiens, UniProt P04626)
T3 construct: purchased Reaction Biology Corp
Method in brief: as §1

HIPK4 = target: T4, HIPK4 (Homo sapiens, UniProt Q8NE63)
T4 construct: purchased Reaction Biology Corp
T4 sequence (Q8NE63 1-616): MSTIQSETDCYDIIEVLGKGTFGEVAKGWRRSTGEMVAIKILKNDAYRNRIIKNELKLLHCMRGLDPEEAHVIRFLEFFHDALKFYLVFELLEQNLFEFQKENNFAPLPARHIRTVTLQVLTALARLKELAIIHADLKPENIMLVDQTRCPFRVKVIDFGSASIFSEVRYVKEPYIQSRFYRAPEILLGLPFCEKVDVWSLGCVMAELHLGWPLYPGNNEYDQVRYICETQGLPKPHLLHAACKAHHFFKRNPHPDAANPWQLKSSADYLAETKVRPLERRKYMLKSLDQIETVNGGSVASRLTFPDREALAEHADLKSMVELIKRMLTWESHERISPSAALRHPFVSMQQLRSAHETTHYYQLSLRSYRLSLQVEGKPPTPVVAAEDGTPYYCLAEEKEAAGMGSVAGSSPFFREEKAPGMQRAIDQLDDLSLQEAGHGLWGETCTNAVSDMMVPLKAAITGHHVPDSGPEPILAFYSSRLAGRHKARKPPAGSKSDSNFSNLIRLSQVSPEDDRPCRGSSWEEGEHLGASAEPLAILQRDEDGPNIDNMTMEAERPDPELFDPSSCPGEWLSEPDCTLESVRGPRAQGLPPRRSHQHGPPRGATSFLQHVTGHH
Method in brief: as §1

PHKg2 = target: T5, PHKg2 (Homo sapiens, UniProt P15735)
T5 construct: purchased Reaction Biology Corp
T5 sequence (P15735 1-406): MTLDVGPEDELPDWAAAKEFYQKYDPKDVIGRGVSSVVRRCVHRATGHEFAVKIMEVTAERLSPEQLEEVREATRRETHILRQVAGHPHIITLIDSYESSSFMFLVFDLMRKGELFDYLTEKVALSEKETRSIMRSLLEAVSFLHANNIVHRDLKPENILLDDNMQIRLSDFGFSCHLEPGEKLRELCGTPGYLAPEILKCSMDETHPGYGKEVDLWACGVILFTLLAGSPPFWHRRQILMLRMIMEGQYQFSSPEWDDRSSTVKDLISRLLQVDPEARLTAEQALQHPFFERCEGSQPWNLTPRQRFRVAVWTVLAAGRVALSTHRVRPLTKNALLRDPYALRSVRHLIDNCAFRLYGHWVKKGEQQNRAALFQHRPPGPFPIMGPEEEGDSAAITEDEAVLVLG
Method in brief: as §1

PKAcg = target: T6, PKAcg (Homo sapiens, UniProt P22612)
T6 construct: purchased Reaction Biology Corp
Method in brief: as §1

PKCtheta = target: T7, PKCtheta (Homo sapiens, UniProt Q04759)
T7 construct: purchased Reaction Biology Corp
Method in brief: as §1

SNARK/NUAK2 = target: T8, SNARK/NUAK2 (Homo sapiens, UniProt Q9H093)
T8 construct: purchased Reaction Biology Corp
T8 sequence (Q9H093 1-628): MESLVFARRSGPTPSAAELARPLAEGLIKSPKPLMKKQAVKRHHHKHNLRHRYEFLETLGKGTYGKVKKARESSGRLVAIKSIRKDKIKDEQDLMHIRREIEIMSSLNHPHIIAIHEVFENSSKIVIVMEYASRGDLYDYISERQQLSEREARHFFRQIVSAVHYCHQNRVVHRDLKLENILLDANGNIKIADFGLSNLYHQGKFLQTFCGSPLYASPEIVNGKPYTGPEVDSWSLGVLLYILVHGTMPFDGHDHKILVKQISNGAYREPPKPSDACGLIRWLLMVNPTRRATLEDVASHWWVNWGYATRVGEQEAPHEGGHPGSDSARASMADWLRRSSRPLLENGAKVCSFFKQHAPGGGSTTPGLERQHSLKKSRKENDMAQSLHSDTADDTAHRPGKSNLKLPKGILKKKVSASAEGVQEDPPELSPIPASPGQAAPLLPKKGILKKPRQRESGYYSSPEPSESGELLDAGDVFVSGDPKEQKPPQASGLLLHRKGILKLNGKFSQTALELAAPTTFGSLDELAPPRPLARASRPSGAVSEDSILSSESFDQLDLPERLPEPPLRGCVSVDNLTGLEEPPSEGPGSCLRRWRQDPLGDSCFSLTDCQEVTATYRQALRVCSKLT
Method in brief: as §1

[1] = read-out: % Enzyme Activity (relative to DMSO controls) AVG
[2] = read-out: % Enzyme Activity (relative to DMSO controls) Data 1
[3] = read-out: % Enzyme Activity (relative to DMSO controls) Data 2

T3 sequence (P04626 23-1255): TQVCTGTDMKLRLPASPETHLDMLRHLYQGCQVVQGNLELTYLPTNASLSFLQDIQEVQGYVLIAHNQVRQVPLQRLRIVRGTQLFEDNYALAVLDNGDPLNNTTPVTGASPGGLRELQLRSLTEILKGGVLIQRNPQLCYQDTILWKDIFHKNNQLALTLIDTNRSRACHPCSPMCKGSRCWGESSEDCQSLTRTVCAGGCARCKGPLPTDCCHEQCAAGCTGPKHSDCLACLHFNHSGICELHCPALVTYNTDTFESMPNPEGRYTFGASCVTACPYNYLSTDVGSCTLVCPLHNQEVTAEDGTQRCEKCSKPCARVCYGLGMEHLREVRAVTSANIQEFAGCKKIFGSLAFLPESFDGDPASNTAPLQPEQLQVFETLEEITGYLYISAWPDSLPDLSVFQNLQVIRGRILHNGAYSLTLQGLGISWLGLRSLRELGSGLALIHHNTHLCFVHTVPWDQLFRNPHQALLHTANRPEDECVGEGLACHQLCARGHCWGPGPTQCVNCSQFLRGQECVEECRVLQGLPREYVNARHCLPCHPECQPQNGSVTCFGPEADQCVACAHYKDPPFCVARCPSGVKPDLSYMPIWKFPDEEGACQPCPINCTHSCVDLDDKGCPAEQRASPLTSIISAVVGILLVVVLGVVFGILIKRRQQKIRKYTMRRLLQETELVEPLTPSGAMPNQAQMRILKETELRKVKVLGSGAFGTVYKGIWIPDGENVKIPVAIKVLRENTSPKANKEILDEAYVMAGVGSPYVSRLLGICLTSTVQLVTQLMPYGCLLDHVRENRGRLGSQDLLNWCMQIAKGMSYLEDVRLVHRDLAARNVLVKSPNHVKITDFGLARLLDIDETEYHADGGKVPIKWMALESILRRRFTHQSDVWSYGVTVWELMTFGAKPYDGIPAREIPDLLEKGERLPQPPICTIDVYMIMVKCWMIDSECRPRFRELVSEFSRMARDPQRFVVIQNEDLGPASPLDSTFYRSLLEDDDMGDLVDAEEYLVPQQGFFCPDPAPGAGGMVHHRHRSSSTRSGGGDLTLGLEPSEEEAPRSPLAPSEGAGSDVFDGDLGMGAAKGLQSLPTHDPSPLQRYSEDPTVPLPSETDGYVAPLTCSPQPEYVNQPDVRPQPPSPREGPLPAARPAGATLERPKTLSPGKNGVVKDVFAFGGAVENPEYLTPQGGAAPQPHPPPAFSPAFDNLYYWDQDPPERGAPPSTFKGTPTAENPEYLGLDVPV
T7 sequence (Q04759 whole entry): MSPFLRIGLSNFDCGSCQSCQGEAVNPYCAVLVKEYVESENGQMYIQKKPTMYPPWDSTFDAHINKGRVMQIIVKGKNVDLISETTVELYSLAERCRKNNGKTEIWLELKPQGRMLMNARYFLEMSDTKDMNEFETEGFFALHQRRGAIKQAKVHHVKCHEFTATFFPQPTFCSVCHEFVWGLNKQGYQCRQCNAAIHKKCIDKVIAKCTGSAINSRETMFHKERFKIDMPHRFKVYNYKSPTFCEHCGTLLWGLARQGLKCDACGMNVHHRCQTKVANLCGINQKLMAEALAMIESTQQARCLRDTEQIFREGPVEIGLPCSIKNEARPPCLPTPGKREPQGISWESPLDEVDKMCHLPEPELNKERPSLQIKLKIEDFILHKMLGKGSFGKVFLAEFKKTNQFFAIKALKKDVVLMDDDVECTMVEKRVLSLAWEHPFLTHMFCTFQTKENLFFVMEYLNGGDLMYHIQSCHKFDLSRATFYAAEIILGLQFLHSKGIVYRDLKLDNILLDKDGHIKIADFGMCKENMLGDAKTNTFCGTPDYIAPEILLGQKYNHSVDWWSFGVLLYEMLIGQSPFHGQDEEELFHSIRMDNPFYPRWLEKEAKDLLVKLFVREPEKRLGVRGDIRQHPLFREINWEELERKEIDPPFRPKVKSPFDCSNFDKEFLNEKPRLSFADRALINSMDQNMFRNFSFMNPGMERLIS
T1 sequence (Q9Y243 whole entry): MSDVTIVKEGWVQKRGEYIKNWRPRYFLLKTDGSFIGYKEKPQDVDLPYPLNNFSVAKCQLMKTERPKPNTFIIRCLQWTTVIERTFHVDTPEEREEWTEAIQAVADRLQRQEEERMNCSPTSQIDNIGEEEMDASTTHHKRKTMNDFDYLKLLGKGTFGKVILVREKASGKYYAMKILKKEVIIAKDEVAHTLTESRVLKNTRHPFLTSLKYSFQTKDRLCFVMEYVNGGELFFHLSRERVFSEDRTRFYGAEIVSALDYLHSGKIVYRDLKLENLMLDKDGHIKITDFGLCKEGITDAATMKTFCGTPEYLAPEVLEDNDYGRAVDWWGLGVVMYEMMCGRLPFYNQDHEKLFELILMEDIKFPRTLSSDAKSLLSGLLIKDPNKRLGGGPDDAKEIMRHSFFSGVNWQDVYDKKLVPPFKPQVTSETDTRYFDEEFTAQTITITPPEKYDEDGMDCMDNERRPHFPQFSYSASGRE
T6 sequence (P22612 whole entry): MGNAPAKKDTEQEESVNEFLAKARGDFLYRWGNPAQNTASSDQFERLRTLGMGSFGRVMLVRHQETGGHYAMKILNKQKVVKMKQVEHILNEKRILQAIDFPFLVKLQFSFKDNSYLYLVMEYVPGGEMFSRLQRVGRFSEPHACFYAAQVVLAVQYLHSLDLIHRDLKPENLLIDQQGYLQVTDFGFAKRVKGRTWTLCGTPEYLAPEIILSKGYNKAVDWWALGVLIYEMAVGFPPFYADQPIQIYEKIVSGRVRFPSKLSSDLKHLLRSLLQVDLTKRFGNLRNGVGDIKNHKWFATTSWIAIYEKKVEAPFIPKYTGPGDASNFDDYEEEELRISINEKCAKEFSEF

## CC(C)(C)C(=O)N1N=CC[C@H]1c1ccccc1 [GSK′963]
AKT3; [1]
  remaining activity at 10 µM: 102%
AKT3; [2]
  remaining activity at 10 µM: 100%
AKT3; [3]
  remaining activity at 10 µM: 103%
DMPK; [1]
  remaining activity at 10 µM: 99.2%
DMPK; [2]
  remaining activity at 10 µM: 97.5%
DMPK; [3]
  remaining activity at 10 µM: 101%
ERBB2/HER2; [1]
  remaining activity at 10 µM: 105%
ERBB2/HER2; [2]
  remaining activity at 10 µM: 102%
ERBB2/HER2; [3]
  remaining activity at 10 µM: 107%
HIPK4; [1]
  remaining activity at 10 µM: 99.5%
HIPK4; [2]
  remaining activity at 10 µM: 96.7%
HIPK4; [3]
  remaining activity at 10 µM: 102%
PHKg2; [1]
  remaining activity at 10 µM: 110%
PHKg2; [2]
  remaining activity at 10 µM: 111%
PHKg2; [3]
  remaining activity at 10 µM: 110%
PKAcg; [1]
  remaining activity at 10 µM: 122%
PKAcg; [2]
  remaining activity at 10 µM: 123%
PKAcg; [3]
  remaining activity at 10 µM: 122%
PKCtheta; [1]
  remaining activity at 10 µM: 96.8%
PKCtheta; [2]
  remaining activity at 10 µM: 97%
PKCtheta; [3]
  remaining activity at 10 µM: 96.7%
SNARK/NUAK2; [1]
  remaining activity at 10 µM: 99.1%
SNARK/NUAK2; [2]
  remaining activity at 10 µM: 99.2%
SNARK/NUAK2; [3]
  remaining activity at 10 µM: 99%
